Reference: PMC10610188, “Structure–Activity Relationship Studies of Chalcones and Diarylpentanoids with Antitumor Activity: Potency and Selectivity Optimization” (Pharmaceuticals, 2023)
Like-named read-outs stand apart in the source and are kept apart here.

What was measured:
HCT116 p53^−/− cells [1] = settings: SRB assay; ref Pereira et al. [23]; cited from earlier work
HCT116 p53^+/+ cells [2] = settings: SRB assay, cited from earlier work
HFF-1 cells = test: SRB growth inhibition assay in normal fibroblasts HFF-1; type: cell-based, human; settings: for SI2: Selective index 2: GI50 of HFF-1/GI50 of HCT116 p53^+/+; for GI50: Homo sapiens, HFF-1, SRB assay, 48 h of treatment
Experimental: (§1) To study the in vitro antitumor potential of chalcone CM-M345 (1) and diarylpentanoid BP-C4 (2) analogues, the sulforhodamine B (SRB) assay was used to evaluate the antiproliferative activity in human colorectal HCT116 cancer cells. To assess their cytotoxicity toward normal cells, the antiproliferative effect of these compounds was also tested in human fibroblasts HFF-1 cells. In order to confirm if inhibition of proliferation was associated with p53 activation in HCT116 p53^+/+ cells, all compounds were also tested in HCT116 cells in which p53 was knocked out (HCT116 p53^−/−) and the selective index was calculated and compared to the compounds CM-M345 (1) and BP-C4 (2), for which p53-dependent antiproliferative activity was previously reported by our research group (Table 1).
(§2) The colorectal adenocarcinoma HCT116 cells (HCT116 p53^+/+) and its p53-null isogenic derivative (HCT116 p53^−/−) were given by Prof. Vogelstein (The Johns Hopkins Kimmel Cancer Center, Baltimore, USA); the normal human fibroblasts HFF-1 cell lines were from ATCC (Rockville, MD, USA). Human cells were cultured in RPMI-1640 with UltraGlutamine (Lonza, VWR, Portugal) with 10% FBS (Gibco, Alfagene, Portugal) at 37 °C with 5% CO2. The SH-SY5Y cells were cultured in DMEM/F-12 (Lonza) and 10% FBS and 2mM L-glutamine (Gibco). The cells were incubated at 37 °C in a humidified atmosphere of 5% CO2. Mycoplasma was routinely checked using the MycoAlert™ PLUS kit (Lonza). […]

HCT116 p53^−/− cells [3] = test: SRB growth inhibition assay in HCT116 p53-/- cells; type: cell-based, human; settings: for GI50: Homo sapiens, HCT-116, SRB assay, 48 h of treatment; for SI1: Selective index 1: GI50 of HCT116 p53^−/−/GI50 of HCT116 p53^+/+
Experimental: as §1, §2

HCT116 p53^+/+ cells [4] = test: SRB growth inhibition assay in HCT116 p53+/+ cells; type: cell-based, human; settings: for GI50: SRB assay, 48 h of treatment
Experimental: as §1, §2

p53–MDM2 interaction = biological target: T1, p53–MDM2 interaction (Homo sapiens, UniProt Q00987); test: Yeast-based p53-MDM2 interaction screening assay; type: cell-based; settings: 10 μM
T1 construct: expressed in transfected cells; host or cells: Saccharomyces cerevisiae strain CG379
T1 sequence (Q00987 whole entry): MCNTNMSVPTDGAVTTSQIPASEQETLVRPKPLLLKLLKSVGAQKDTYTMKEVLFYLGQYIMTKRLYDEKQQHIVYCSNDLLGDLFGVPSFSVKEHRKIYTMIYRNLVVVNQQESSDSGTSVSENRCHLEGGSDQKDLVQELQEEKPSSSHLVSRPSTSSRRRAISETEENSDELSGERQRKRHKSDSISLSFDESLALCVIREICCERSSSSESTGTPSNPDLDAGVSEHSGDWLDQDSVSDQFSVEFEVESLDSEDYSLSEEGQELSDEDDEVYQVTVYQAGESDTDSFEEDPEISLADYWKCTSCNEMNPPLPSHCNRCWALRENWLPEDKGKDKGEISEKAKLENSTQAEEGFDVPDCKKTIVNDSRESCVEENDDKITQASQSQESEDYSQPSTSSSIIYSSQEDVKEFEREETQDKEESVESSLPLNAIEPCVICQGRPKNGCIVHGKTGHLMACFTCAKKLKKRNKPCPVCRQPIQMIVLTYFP
Description: The possible activation of p53 by inhibiting its interaction with MDM2 was investigated using the yeast-based screening assay previously developed by our group. In this assay, compounds that inhibit p53–MDM2 interaction will re-establish the p53-induced growth-inhibitory effect, which was abolished by MDM2 [43].
In the yeast targeted screening assay, Saccharomyces cerevisiae (strain CG379) expressing human wt p53 alone and combined with human MDM2 were used as described. For the expression of human proteins (routinely grown in minimal selective medium), the cells were diluted to 0.05 OD600 in the selective induction medium with 2% (w/w) galactose, 1% (w/w) raffinose, 0.7% (w/w) yeast nitrogen base without amino acids from Difco (Quilaban, Sintra, Portugal), and all the amino acids necessary for yeast growth ([…]) except leucine and tryptophan. The yeast cells were incubated at 30 °C under continuous orbital shaking (200 rpm) with […] compounds or 0.1% DMSO only for over 42 h. Yeast growth was analyzed by counting the number of colony-forming units (CFUs) after 2 days of incubation at 30 °C on Sabouraud Dextrose Agar from Liofilchem (Frilabo, Porto, Portugal).

Row | Structure (SMILES) | GI50 (HCT116 p53^−/− cells [1]) [µM] | GI50 (HCT116 p53^+/+ cells [2]; ref Pereira et al. [23]) [µM] | SI2: Selective index 2 (HFF-1 cells) | GI50 (HFF-1 cells) [µM] | GI50 (HCT116 p53^+/+ cells [2]; ref Moreira et al. [21]) [µM] | GI50 (HCT116 p53^−/− cells [3]) [µM] | GI50 (HCT116 p53^+/+ cells [4]; Homo sapiens, HCT-116, 48 h) [µM] | GI50 (HCT116 p53^+/+ cells [4]) [µM] | inhibition of the p53–MDM2 interaction in yeast co-expressing p53 and MDM2 (p53–MDM2 interaction) | melting point [°C] | SI1: Selective index 1 (HCT116 p53^−/− cells [3]) | selectivity for p53 compared to BP-C4 (2) (HCT116 p53^−/− cells [3]; HCT116 p53^+/+ over p53^−/−) | antiproliferative activity compared to BP-C4 (2) (HCT116 p53^+/+ cells [4]; HCT116 p53^+/+) | effect on growth of control yeast (vectors) or yeast expressing p53 only (p53–MDM2 interaction)
1 | CCCc1c(OC)ccc(C(=O)/C=C/c2cc(OC)c(OC)c(OC)c2)c1O [CM-M345 (1), (E)-1-(2-hydroxy-4-methoxy-3-propylphenyl)-3-(3,4,5-trimethoxyphenyl)prop-2-en-1-one] | 3.4 ± 0.1 | 2.6 ± 0.2 | 2.96 | 7.7 ± 0.8 |  |  |  |  |  |  |  |  |  | 
2 | COc1cc(/C=C2\COC/C(=C\c3cc(OC)c(OC)c(OC)c3)C2=O)cc(OC)c1OC [BP-M345 (1), reference compound] |  |  |  |  | 0.17 |  |  |  |  |  |  |  |  | 
3 | CCCc1c(OC)ccc(C(=O)/C=C/c2ccc(N3CCOCC3)cc2)c1O [Compound 36, (E)-1-(2-hydroxy-4-methoxy-3-propylphenyl)-3-(4-morpholinophenyl)prop-2-en-1-one] |  |  | 3.08 | 15.7 ± 2.8 |  | 14.3 ± 1.1 | 5.1 to 10.7 | 5.1 ± 0.32 | seems not to be related to the inhibition of p53–MDM2 interaction | 129 to 131 |  |  |  | 
4 | O=C1/C(=C/c2ccc(Cl)cc2)CSc2ccccc21 [Compound 16] |  |  | 5.25 | 3.62 ± 0.99 |  | 7.95 ± 0.85 | 0.69 ± 0.07 |  | behaved as a potential inhibitor of the p53-MDM2 interaction | 139 to 141 | 11.5 | seven-fold increased | nine-fold higher | without interfering with the growth
5 | COc1cc(/C=C2\Cc3ccccc3C2=O)cc(OC)c1OC [Compound 3] |  |  | 1.76 | 8.1 ± 0.1 |  | 3.2 ± 0.47 | 4.6 ± 0.3 |  |  | 160 to 163 | 0.70 |  |  | 
6 | CCCc1c(OC)ccc(C(=O)/C=C/c2cc(OC)c(OC)c(OC)c2)c1OCC=C(C)C [Compound 26, (E)-1-(4-methoxy-2-((3-methylbut-2-en-1-yl)oxy)-3-propylphenyl)-3-(3,4,5-trimethoxyphenyl)prop-2-en-1-one] |  |  | 1.22 | 7.3 ± 2 |  | 4.6 ± 1.7 | 6 ± 0.93 |  |  | 100 to 103 | 0.77 |  |  | 
7 | CCCc1c(OC)ccc(C(=O)/C=C/c2ccc(Cl)cc2)c1O [Compound 32] |  |  | 1.17 | 11.1 ± 0.12 |  | 9.5 ± 0.1 | 9.5 ± 0.5 |  |  | 109 to 112 | 1 |  |  | 
8 | CC(C)=CCOc1ccc(/C=C2\COC/C(=C\c3ccc(OCC=C(C)C)cc3)C2=O)cc1 [Compound 40, 3,5-bis((E)-4-((3-methylbut-2-en-1-yl)oxy)benzylidene)tetrahydro-4H-pyran-4-one] |  |  | 1.48 | 14.1 ± 0.08 |  | 5.8 ± 0.21 | 9.51 | 9.53 ± 0.25 |  | 145 to 147 | 0.61 |  |  | 
9 | COc1ccc2c(c1OC)C/C(=C\c1ccc(Cl)cc1)C2=O [Compound 7, (E)-2-(4-chlorobenzylidene)-4,5-dimethoxy-2,3-dihydro-1H-inden-1-one] |  |  | 0.64 | 4.7 ± 0.5 |  | 4.5 ± 0.13 | 7.4 ± 0.56 |  |  | 206 to 209 | 0.61 |  |  | 
